Measurements as given in US7790751B2, “Azinyl-3-sulfonylindazole derivatives as 5-hydroxytryptamine-6 ligands” (Wyeth LLC, priority 2005, dated 2010).
Structures can show the parent of a compound that is named as a salt.

Each molecule was assayed against human cloned 5-HT6 receptors (Homo sapiens, UniProt P50406) (assay: Evaluation of 5-HT6 binding affinity of test compounds ([3H]-LSD displacement)).
Sequence of human cloned 5-HT6 receptors (P50406 whole entry): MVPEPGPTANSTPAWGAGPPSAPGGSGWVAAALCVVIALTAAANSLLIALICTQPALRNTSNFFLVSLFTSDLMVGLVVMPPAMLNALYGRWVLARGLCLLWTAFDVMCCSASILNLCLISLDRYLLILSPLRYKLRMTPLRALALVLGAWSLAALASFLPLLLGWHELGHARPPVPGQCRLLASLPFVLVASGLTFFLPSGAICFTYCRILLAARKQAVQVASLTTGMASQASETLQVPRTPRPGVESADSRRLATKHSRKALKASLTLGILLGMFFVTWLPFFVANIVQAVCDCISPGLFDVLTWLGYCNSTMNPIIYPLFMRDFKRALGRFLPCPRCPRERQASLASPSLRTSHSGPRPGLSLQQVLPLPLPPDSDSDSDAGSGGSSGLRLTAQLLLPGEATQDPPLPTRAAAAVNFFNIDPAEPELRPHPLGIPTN

SMILES	Ki [nM]
O=S(=O)(c1cccc2ccccc12)c1n[nH]c2ccc(NCC3CCNCC3)cc12 [Example 31, 3-(1-Naphthylsulfonyl)-N-(piperidin-4-ylmethyl)-1H-indazol-5-amine Dihydrochloride]	0.01 to 10
O=C(Nc1ccc2[nH]nc(S(=O)(=O)c3cccc4ccccc34)c2c1)C1CCNCC1 [Example 52, N-[3-(1-Naphthylsulfonyl)-1H-indazol-5-yl]piperidine-4-carboxamide Hydrochloride]	0.01 to 10
O=S(=O)(c1ccccc1)c1n[nH]c2ccc(OC3CCNCC3)cc12 [Example 7, 3-(phenylsulfonyl)-5-(piperidin-4-yloxy)-1H-indazole]	11 to 25
O=S(=O)(c1cccc2ccccc12)c1n[nH]c2cccc(NC3CCCNC3)c12 (centres unmarked) [Example 40, 3-(1-Naphthylsulfonyl)-N-piperidin-3-yl-1H-indazol-4-amine Dihydrochloride]	0.01 to 10
O=S(=O)(c1cccc2ccccc12)c1n[nH]c2ccc(OC3CCNCC3)cc12 [Example 6, 3-(1-Naphthylsulfonyl)-5-(piperidin-4-yloxy)-1H-indazole Hydrochloride]	0.01 to 10
O=S(=O)(c1cccc2ccccc12)c1n[nH]c2cc(NC3CCCNC3)ccc12 (centres unmarked) [Example 34, 3-(1-Naphthylsulfonyl)-N-piperidin-3-yl-1H-indazol-6-amine Dihydrochloride]	> 45
CCCN1CCC(Oc2ccc3[nH]nc(S(=O)(=O)c4cccc5ccccc45)c3c2)CC1 [Example 19, 3-(1-Naphthylsulfonyl)-5-(1-propylpiperidin-4-yloxy)-1H-indazole Hydrochloride]	0.01 to 10
Cc1ccc(S(=O)(=O)c2n[nH]c3ccc(OC4CCNCC4)cc23)c2ccccc12 [Example 18, 3-[(4-methyl-1-naphthyl)sulfonyl]-5-(piperidin-4-yloxy)-1H-indazole]	0.01 to 10
O=S(=O)(c1cccc(F)c1)c1n[nH]c2ccc(OC3CCNCC3)cc12 [Example 8, 3-[(3-fluorophenyl)sulfonyl]-5-(piperidin-4-yloxy)-1H-indazole]	11 to 25
O=S(=O)(c1cccc2ccccc12)c1n[nH]c2ccc(OC3CCN(CCc4ccccc4)C3)cc12 (centres unmarked) [Example 26, 3-(1-Naphthylsulfonyl)-5-{[1-(2-phenylethyl)pyrrolidin-3-yl]oxy}-1H-indazole Hydrochloride]	11 to 25
Cc1cccc(S(=O)(=O)c2n[nH]c3ccc(NC4CCNCC4)cc23)c1 [Example 51, 3-[(3-methylphenyl)sulfonyl]-N-piperidin-4-yl-1H-indazol-5-amine]	0.01 to 10
O=S(=O)(c1cccc2ccccc12)c1n[nH]c2ccc(OC3CCNC3)cc12 (centres unmarked) [Example 1, 3-(Naphthalene-1-sulfonyl)-5-(pyrrolidin-3-yloxy)-1H-indazole]	0.01 to 10
O=S(=O)(c1cccc(F)c1)c1n[nH]c2ccc(NC3CCNCC3)cc12 [Example 45, 3-[(3-fluorophenyl)sulfonyl]-N-piperidin-4-yl-1H-indazol-5-amine]	0.01 to 10
CC(C)N1CCC(Oc2ccc3[nH]nc(S(=O)(=O)c4cccc5ccccc45)c3c2)C1 (centres unmarked) [Example 4, 5-(1-Isopropyl-pyrrolidin-3-yloxy)-3-(naphthalene-1-sulfonyl)-1H-indazole Hydrochloride]	0.01 to 10
O=S(=O)(c1cccc(Cl)c1)c1n[nH]c2ccc(NC3CCNCC3)cc12 [Example 42, 3-[(3-chlorophenyl)sulfonyl]-N-piperidin-4-yl-1H-indazol-5-amine]	0.01 to 10
CCCCN1CCC(Oc2ccc3[nH]nc(S(=O)(=O)c4cccc5ccccc45)c3c2)CC1 [Example 20, 5-(1-Butylpiperidin-4-yloxy)-3-(1-naphthylsulfonyl)-1H-indazole Hydrochloride]	0.01 to 10
O=C(Nc1cccc2c(S(=O)(=O)c3cccc4ccccc34)n[nH]c12)C1CCCNC1 (centres unmarked) [Example 55, N-[3-(1-Naphthylsulfonyl)-1H-indazol-7-yl]piperidine-3-carboxamide Dihydrochloride]	0.01 to 10
O=S(=O)(c1cccc2ccccc12)c1n[nH]c2cccc(NC3CCNCC3)c12 [Example 39, 3-(1-Naphthylsulfonyl)-N-piperidin-4-yl-1H-indazol-4-amine Dihydrochloride]	0.01 to 10
O=S(=O)(c1ccc(Cl)cc1)c1n[nH]c2ccc(OC3CCNCC3)cc12 [Example 11, 3-[(4-chlorophenyl)sulfonyl]-5-(piperidin-4-yloxy)-1H-indazole]	11 to 25
CCCCN1CCC(Oc2ccc3[nH]nc(S(=O)(=O)c4cccc5ccccc45)c3c2)C1 (centres unmarked) [Example 2, 5-(1-Butylpyrrolidin-3-yloxy)-3-(1-naphthylsulfonyl)-1H-indazole Hydrochloride]	0.01 to 10
COc1ccc(S(=O)(=O)c2n[nH]c3ccc(NC4CCNCC4)cc23)cc1 [Example 50, 3-[(4-methoxyphenyl)sulfonyl]-N-piperidin-4-yl-1H-indazol-5-amine]	0.01 to 10
O=S(=O)(c1cccc2ccccc12)c1n[nH]c2c(NC3CCCNC3)cccc12 (centres unmarked) [Example 37, 3-(1-Naphthylsulfonyl)-N-piperidin-3-yl-1H-indazol-7-amine Dihydrochloride]	> 45
COc1ccc(S(=O)(=O)c2n[nH]c3ccc(OC4CCNCC4)cc23)cc1 [Example 14, 3-[(4-methoxyphenyl)sulfonyl]-5-(piperidin-4-yloxy)-1H-indazole]	> 45
CN1CCC(Oc2ccc3[nH]nc(S(=O)(=O)c4cccc5ccccc45)c3c2)C1 (centres unmarked) [Example 5, 5-(1-Methyl-pyrrolidin-3-yloxy)-3-(naphthalene-1-sulfonyl)-1H-indazole Hydrochloride]	0.01 to 10
O=S(=O)(c1ccccc1Cl)c1n[nH]c2ccc(OC3CCNCC3)cc12 [Example 9, 3-[(2-chlorophenyl)sulfonyl]-5-(piperidin-4-yloxy)-1H-indazole]	> 45
O=C(Nc1cccc2c(S(=O)(=O)c3cccc4ccccc34)n[nH]c12)C1CCNCC1 [Example 54, N-[3-(1-Naphthylsulfonyl)-1H-indazol-7-yl]piperidine-4-carboxamide Dihydrochloride]	26 to 35
O=S(=O)(c1ccccc1)c1n[nH]c2ccc(NC3CCNCC3)cc12 [Example 49, 3-(phenylsulfonyl)-N-piperidin-4-yl-1H-indazol-5-amine]	0.01 to 10

Next, values leading:

Ki [nM]	SMILES
0.01 to 10	CCN1CCC(Oc2ccc3[nH]nc(S(=O)(=O)c4cccc5ccccc45)c3c2)CC1 [Example 24, 5-[1-(Ethylpiperidin-4-yl)oxy]-3-(1-naphthylsulfonyl)-1H-indazole Hydrochloride]
0.01 to 10	CCCN1CCC(Oc2ccc3[nH]nc(S(=O)(=O)c4cccc5ccccc45)c3c2)C1 (centres unmarked) [Example 3, 3-(Naphthalene-1-sulfonyl)-5-(1-propyl-pyrrolidin-3-yloxy)-1H-indazole Hydrochloride]
11 to 25	O=S(=O)(c1ccc(C(F)(F)F)cc1)c1n[nH]c2ccc(OC3CCNCC3)cc12 [Example 16, 5-(piperidin-4-yloxy)-3-{[4-(trifluoromethyl)phenyl]sulfonyl}-1H-indazole]
11 to 25	O=S(=O)(c1cccc2ccccc12)c1n[nH]c2c(NCC3CCNCC3)cccc12 [Example 38, 3-(1-Naphthylsulfonyl)-N-(piperidin-4-ylmethyl)-1H-indazol-7-amine Dihydrochloride]
0.01 to 10	CCN1CCC(Oc2ccc3[nH]nc(S(=O)(=O)c4cccc5ccccc45)c3c2)C1 (centres unmarked) [Example 25, 5-[1-(Ethylpyrrolidin-3-yl)oxy]-3-(1-napthylsulfonyl)-1H-indazole Hydrochloride]
0.01 to 10	O=S(=O)(c1ccc(F)cc1)c1n[nH]c2ccc(NC3CCNCC3)cc12 [Example 46, 3-[(4-fluorophenyl)sulfonyl]-N-piperidin-4-yl-1H-indazol-5-amine]
0.01 to 10	O=S(=O)(c1ccc(C(F)(F)F)cc1)c1n[nH]c2ccc(NC3CCNCC3)cc12 [Example 48, N-piperidin-4-yl-3-{[4-(trifluoromethyl)phenyl]sulfonyl}-1H-indazol-5-amine]
0.01 to 10	O=S(=O)(c1cccc2ccccc12)c1n[nH]c2ccc(NC3CCCNC3)cc12 (centres unmarked) [Example 32, 3-(1-Naphthylsulfonyl)-N-piperidin-3-yl-1H-indazol-5-amine Dihydrochloride]
26 to 35	O=C(Nc1ccc2c(S(=O)(=O)c3cccc4ccccc34)n[nH]c2c1)C1CCNCC1 [Example 53, N-[3-(1-Naphthylsulfonyl)-1H-indazol-6-yl]piperidine-4-carboxamide Dihydrochloride]
0.01 to 10	CC(C)N1CCC(Oc2ccc3[nH]nc(S(=O)(=O)c4cccc5ccccc45)c3c2)CC1 [Example 22, 5-(1-Isopropylpiperidin-4-yloxy)-3-(1-naphthylsulfonyl)-1H-indazole Hydrochloride]
> 45	O=S(=O)(c1cccc2ccccc12)c1n[nH]c2cc(NC3CCNCC3)ccc12 [Example 33, 3-(1-Naphthylsulfonyl)-N-piperidin-4-yl-1H-indazol-6-amine Dihydrochloride]
0.01 to 10	O=S(=O)(c1cccc2ccccc12)c1n[nH]c2ccc(NC3CCNCC3)cc12 [Example 30, [3-(1-Naphthylsulfonyl)-1H-indazol-5-yl]-piperidin-4-ylamine Dihydrochloride]
11 to 25	CC(C)c1ccc(S(=O)(=O)c2n[nH]c3ccc(OC4CCNCC4)cc23)cc1 [Example 17, 3-[(4-isopropylphenyl)sulfonyl]-5-(piperidin-4-yloxy)-1H-indazole]
26 to 35	O=S(=O)(c1cccc2ccccc12)c1n[nH]c2c(NC3CCNCC3)cccc12 [Example 36, 3-(1-Naphthylsulfonyl)-N-piperidin-4-yl-1H-indazol-7-amine Dihydrochloride]
0.01 to 10	CC(C)c1ccc(S(=O)(=O)c2n[nH]c3ccc(NC4CCNCC4)cc23)cc1 [Example 47, 3-[(4-isopropylphenyl)sulfonyl]-N-piperidin-4-yl-1H-indazol-5-amine]
0.01 to 10	O=S(=O)(c1cccc2ccccc12)c1n[nH]c2cccc(NCC3CCNCC3)c12 [Example 41, 3-(1-Naphthylsulfonyl)-N-(piperidin-4-ylmethyl)-1H-indazol-4-amine Dihydrochloride]
0.01 to 10	Cc1cccc(S(=O)(=O)c2n[nH]c3ccc(OC4CCNCC4)cc23)c1 [Example 12, 3-[(3-methylphenyl)sulfonyl]-5-(piperidin-4-yloxy)-1H-indazole]
